Reference: paper PMC9065575, “Synthesis, computational studies, antimycobacterial and antibacterial properties of pyrazinoic acid–isoniazid hybrid conjugates” (RSC Advances, 2019)
“And” between values parts separate entries of the source, which are not always exact repeats. Identical values can stand only once. Like-named read-outs stand apart in the source and are kept apart here.

Tests used:
Proteus vulgaris = assay: Aerobic antibacterial MIC, standard dilution technique; assay type: cell-based; conditions: clinical isolate, read-out: Minimum inhibitory concentration (MIC) Proteus vulgaris
Description: (§1) Antibacterial properties were investigated for the synthesized compounds against a variety of Gram-positive (Staphylococcus aureus, Enterococcus faecalis) and Gram-negative (Klebsiella pneumonia, Proteus vulgaris, Pseudomonas aeruginosa) clinical isolate bacteria utilizing the standard technique.[21]

Enterococcus faecalis = assay: as above; assay type: cell-based; conditions: clinical isolate, read-out: Minimum inhibitory concentration (MIC) Enterococcus faecalis
Description: as §1

Klebsiella pneumoniae = assay: as above; assay type: cell-based; conditions: clinical isolate, read-out: Minimum inhibitory concentration (MIC) Klebsiella pneumoniae
Description: as §1

Staphylococcus aureus = assay: as above; assay type: cell-based; conditions: clinical isolate, read-out: Minimum inhibitory concentration (MIC) Staphylococcus aureus
Description: as §1

Pseudomonas aeruginosa = assay: as above; assay type: cell-based; conditions: clinical isolate, read-out: Minimum inhibitory concentration (MIC) Pseudomonas aeruginosa
Description: as §1

[1] = tested on: RPE1 (normal human immortalized retinal epithelial) cell line; assay: Antiproliferative properties by MTT technique; assay type: cell-based; conditions: RPE1 cells, 100 μM
Method: Antiproliferative properties of the synthesized compounds were screened against RPE1 (normal human immortalized retinal epithelial) cell line to determine the toxicity/selectivity towards normal cell by the standard MTT technique.[23]
Antiproliferative properties of the synthesized compounds were tested against RPE1 (normal human immortalized retinal epithelial) cell line at 100 μM to determine the toxicity/selectivity towards normal cell by the standard MTT technique.[23]

Mycobacterium marinum = assay: microbe, parasite or virus in culture; assay type: cell-based; conditions: clinical isolate, read-out: Minimum inhibitory concentration (MIC) M. marinum
Mycobacterium bovis = assay: microbe, parasite or virus in culture; assay type: cell-based; conditions: for MIC: Mycobacterium tuberculosis variant bovis, read-out: Minimum inhibitory concentration (MIC) M. bovis; for potency relative to the standard references (M. bovis MIC): vs INH and PZA
Mycobacterium fortuitum = assay: microbe, parasite or virus in culture; assay type: cell-based; conditions: Mycolicibacterium fortuitum
[2] = tested on: M. tuberculosis Erdman strain expressing luciferase; assay: microbe, parasite or virus in culture; assay type: cell-based, Mycobacterium tuberculosis; conditions: for inhibition at 30 µg/mL: Mycobacterium tuberculosis, ERDMAN, 168 h, read-out: Observed % growth inhibition at 30 µg/mL
[3] = Enterococcus faecalis, value in parentheses
[4] = M. fortuitum, observed values listed with the BMLR-QSAR model, read-out: Observed MIC (Table S6)
[5] = clinical isolate, observed MIC, read-out: Minimum inhibitory concentration (MIC) M. fortuitum
[6] = clinical isolate, read-out: Minimum inhibitory concentration (MIC) M. fortuitum
[7] = 30 μg mL^−1, pH 7.0, 7 days, vs untreated controls

Row | SMILES | MIC (Proteus vulgaris) [µg/mL] | MIC (Proteus vulgaris; value in parentheses) [µM] | MIC (Enterococcus faecalis; Enterococcus faecalis) [µg/mL] | MIC (Enterococcus faecalis; [3]) [µM] | MIC (Klebsiella pneumoniae) [µg/mL] | MIC (Klebsiella pneumoniae; value in parentheses) [µM] | MIC (Staphylococcus aureus) [µg/mL] | MIC (Staphylococcus aureus; value in parentheses) [µM] | MIC (Pseudomonas aeruginosa) [µg/mL] | MIC (Pseudomonas aeruginosa; value in parentheses) [µM] | further results
1 | O=C(N[C@@H](Cc1c[nH]c2ccccc12)C(=O)O)c1cnccn1 [C00010] | 0.06 | 0.19 | 0.03 | 0.1 | 64 | 206 | 64 | 206 | 0.12 | 0.39 | 
2 | CC(C)[C@H](NC(=O)c1cnccn1)C(=O)NNC(=O)c1ccncc1 [C00012] | 0.06 | 0.18 | 0.12 |  | 8 | 23.4 | 16 | 46.7 | 0.12 | 0.35 | MIC (Enterococcus faecalis; value in parentheses): 0.35 µM
3 | CC(C)C[C@H](NC(=O)c1cnccn1)C(=O)O [C00004] | 8 | 33.7 | 0.03 | 0.13 | 64 | 270 | 1020 | 4320 | 0.03 | 0.13 | 
4 | NC(=O)c1cnccn1 [C00001] | 8 | 65 | 0.12 | 0.97 | 64 | 520 | 1020 | 8320 | 4 | 32.5 | 
5 | O=C(NC(Cc1ccccc1)C(=O)O)c1cnccn1 (stereo not drawn) [C00009] | 0.06 | 0.22 | 0.03 | 0.11 | 16 | 59 | 16 | 59 | 16 | 59 | 
6 | O=C(NNC(=O)c1cnccn1)c1ccncc1 [C00018] | 64 |  | 16 |  | 8 |  | 8 |  | 0.03 | 0.12 | 
7 | O=C(NNC(=O)c1cnccn1)c1ccncc1 [compound 13, N′-Isonicotinoylpyrazine-2-carbohydrazide] |  | 263 |  | 65.8 |  | 32.9 |  | 32.9 |  |  | Percentage of cell proliferation ± SD [1]: 88.2 ± 5.1%; MIC (Mycobacterium marinum; observed MIC): 41.1 µM; MIC (Mycobacterium marinum): 10 µg/mL; MIC (Mycobacterium bovis): 82.2 µM and 20 µg/mL; potency relative to the standard references (M. bovis MIC) (Mycobacterium bovis): 1.8–2.0 folds; MIC (Mycobacterium fortuitum; [4]): 41100 µM; MIC (Mycobacterium fortuitum; [5]): 41.1 µM; MIC (Mycobacterium fortuitum; [6]): 10 µg/mL; growth inhibition at 3 μg mL^−1 ([2]; 3 μg mL^−1, pH 7.0, compared with INH (>70% at 30 μg mL^−1)): same growth inhibition; inhibition at 30 µg/mL [2, 7]: 90.1%
8 | O=C(NNC(=O)[C@H](Cc1c[nH]c2ccccc12)NC(=O)c1cnccn1)c1ccncc1 [C00017] | 0.06 | 0.14 | 0.03 | 0.07 | 4 | 9.31 | 16 | 37.3 | 0.12 | 0.28 | 
9 | CSCC[C@H](NC(=O)c1cnccn1)C(=O)O [C00007] | 0.06 | 0.24 | 0.03 | 0.12 | 64 | 251 | 16 | 62.7 | 0.12 | 0.47 | 
10 | CC[C@@H](C)[C@H](NC(=O)c1cnccn1)C(=O)O [C00006] | 0.06 | 0.25 | 0.03 | 0.13 | 8 | 33.7 | 16 | 67.4 | 0.12 | 0.51 | 
11 | CSCC[C@H](NC(=O)c1cnccn1)C(=O)NNC(=O)c1ccncc1 [12d, (S)-N-(1-(2-Isonicotinoylhydrazineyl)-4-(methylthio)-1-oxobutan-2-yl)pyrazine-2-carboxamide] |  |  |  |  |  |  |  |  |  |  | MIC (Mycobacterium marinum; observed MIC): 26.7 µM; MIC (Mycobacterium marinum): 10 µg/mL; MIC (Mycobacterium bovis): > 20 µg/mL and > 53.4 µM; MIC (Mycobacterium fortuitum; [4]): 53400 µM; MIC (Mycobacterium fortuitum; [5]): 53.4 µM; MIC (Mycobacterium fortuitum; [6]): 20 µg/mL; melting point: 145 to 147 °C
12 | NC(=O)c1cnccn1 [PZA, pyrazinamide, reference compound] |  |  |  |  |  |  |  |  |  |  | MIC (Mycobacterium marinum; observed MIC): 81.2 µM; MIC (Mycobacterium marinum): 10 µg/mL; MIC (Mycobacterium bovis): 162 µM and 20 µg/mL; MIC (Mycobacterium fortuitum; [4]): 81200 µM; MIC (Mycobacterium fortuitum; [5]): 81.2 µM; MIC (Mycobacterium fortuitum; [6]): 10 µg/mL; Observed % growth inhibition at 30 µg/mL [2, 7]: not observed
13 | O=C(NNC(=O)C(Cc1ccccc1)NC(=O)c1cnccn1)c1ccncc1 (stereo not drawn) [C00016] | 16 | 41 | 0.03 | 0.08 | 8 | 20.5 | 16 | 41 | 32 | 82 | 
14 | CC(C)C[C@H](NC(=O)c1cnccn1)C(=O)NNC(=O)c1ccncc1 [C00011] | 0.06 | 0.17 | 0.03 | 0.08 | 4 | 11.2 | 2 | 5.61 | 64 | 180 | 
15 | CSCC[C@H](NC(=O)c1cnccn1)C(=O)NNC(=O)c1ccncc1 [C00014] | 0.06 | 0.16 | 0.03 | 0.08 | 4 | 10.7 | 64 | 171 | 0.12 | 0.32 | 
16 | CC[C@H](C)[C@H](NC(=O)c1cnccn1)C(=O)NNC(=O)c1ccncc1 [C00013] | 0.06 | 0.17 | 0.03 | 0.08 | 8 | 22.4 | 16 | 44.9 | 0.12 | 0.34 | 
17 | CC(C)[C@H](NC(=O)c1cnccn1)C(=O)O [C00005] | 0.06 | 0.27 | 0.03 |  | 0.03 | 0.13 | 512 | 2290 | 4 | 17.9 | 
18 | O=C(NC(Cc1ccccc1)C(=O)O)c1cnccn1 (racemic) [10f, (Pyrazine-2-carbonyl)-DL-phenylalanine] |  |  |  |  |  |  |  |  |  |  | Percentage of cell proliferation ± SD [1]: 86.5 ± 4.2%; MIC (Mycobacterium marinum; observed MIC): 73.7 µM; MIC (Mycobacterium marinum): 20 µg/mL; MIC (Mycobacterium bovis): > 20 µg/mL and > 73.7 µM; MIC (Mycobacterium fortuitum; [5]): > 73.7 µM; MIC (Mycobacterium fortuitum; [6]): > 20 µg/mL
19 | NNC(=O)c1ccncc1 [INH, isoniazid] |  |  |  |  |  |  |  |  |  |  | MIC (Mycobacterium marinum; observed MIC): 72.9 µM; MIC (Mycobacterium marinum): 10 µg/mL; MIC (Mycobacterium bovis): 146 µM and 20 µg/mL; MIC (Mycobacterium fortuitum; [5]): 146 µM; MIC (Mycobacterium fortuitum; [6]): 20 µg/mL; inhibition at 30 µg/mL [2, 7]: > 70%
20 | O=C(NNC(=O)[C@H](Cc1ccccc1)NC(=O)c1cnccn1)c1ccncc1 [C00015] | 0.06 | 0.15 | 0.12 | 0.31 | 8 | 20.5 | 16 | 41 | 0.12 | 0.31 | 
21 | O=C(NNC(=O)c1ccncc1)c1ccncc1 [C00019] | 0.03 |  | 16 |  | 4 |  | 4 |  | 0.06 | 0.25 | 
22 | O=C(N[C@@H](Cc1ccccc1)C(=O)O)c1cnccn1 [10e, (Pyrazine-2-carbonyl)-L-phenylalanine] |  |  |  |  |  |  |  |  |  |  | Percentage of cell proliferation ± SD [1]: 90.4 ± 3.3%; MIC (Mycobacterium marinum; observed MIC): > 73.7 µM; MIC (Mycobacterium marinum): > 20 µg/mL; MIC (Mycobacterium bovis): > 20 µg/mL and > 73.7 µM; MIC (Mycobacterium fortuitum; [5]): > 73.7 µM; MIC (Mycobacterium fortuitum; [6]): > 20 µg/mL; inhibition at 30 µg/mL [2, 7]: 60.4%
23 | O=C(NNC(=O)c1ccncc1)c1ccncc1 [compound 16, N′-Isonicotinoylisonicotinohydrazide] |  | 0.12 |  | 66 |  | 16.5 |  | 16.5 |  |  | Percentage of cell proliferation ± SD [1]: 83.5 ± 7.4%; MIC (Mycobacterium marinum; observed MIC): 82.6 µM; MIC (Mycobacterium marinum): 20 µg/mL; MIC (Mycobacterium bovis): 82.6 µM and 20 µg/mL; potency relative to the standard references (M. bovis MIC) (Mycobacterium bovis): 1.8–2.0 folds; MIC (Mycobacterium fortuitum; [4]): 82600 µM; MIC (Mycobacterium fortuitum; [5]): 82.6 µM; MIC (Mycobacterium fortuitum; [6]): 20 µg/mL; inhibition at 30 µg/mL [2, 7]: 78.1%
24 | O=C(N[C@@H](Cc1ccccc1)C(=O)O)c1cnccn1 [C00008] | 0.06 | 0.22 | 0.12 | 0.44 | 64 | 236 | 64 | 236 | 0.12 | 0.44 | 
25 | NNC(=O)c1ccncc1 [C00002] | 64 | 467 | 16 | 117 | 8 | 58.3 | 64 | 467 | 64 | 467 | 
